Data as given in ChEMBL document CHEMBL1201862, “PubChem BioAssay data set” (2004).
Calls of active or inactive are those of the source.

Columns and labels:
[1] = target: T1, Protein skinhead-1 (Caenorhabditis elegans, UniProt P34707); type: functional
T1 sequence (P34707 whole entry): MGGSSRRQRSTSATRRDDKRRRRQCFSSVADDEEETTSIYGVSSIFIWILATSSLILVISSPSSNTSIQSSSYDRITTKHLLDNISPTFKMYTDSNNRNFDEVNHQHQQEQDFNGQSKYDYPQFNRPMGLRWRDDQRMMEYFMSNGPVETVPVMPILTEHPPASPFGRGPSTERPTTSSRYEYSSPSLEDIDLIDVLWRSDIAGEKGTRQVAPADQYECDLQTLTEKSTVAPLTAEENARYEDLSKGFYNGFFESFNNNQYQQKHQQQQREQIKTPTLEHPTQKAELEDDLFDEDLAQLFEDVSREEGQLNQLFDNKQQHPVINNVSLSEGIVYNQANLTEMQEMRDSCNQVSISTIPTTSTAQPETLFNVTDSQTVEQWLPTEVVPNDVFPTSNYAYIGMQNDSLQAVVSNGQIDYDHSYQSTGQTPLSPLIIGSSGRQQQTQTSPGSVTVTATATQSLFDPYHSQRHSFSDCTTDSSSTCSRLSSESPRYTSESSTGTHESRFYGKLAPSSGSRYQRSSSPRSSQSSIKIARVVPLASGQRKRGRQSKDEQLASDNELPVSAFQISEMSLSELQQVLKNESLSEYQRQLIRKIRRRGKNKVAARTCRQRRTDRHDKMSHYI

[2] = target: T2, Rac GTPase-activating protein 1 (Homo sapiens, UniProt Q9H0H5); experiment: blockers of MgcRacGAP-driven Rac1 GTP hydrolysis – biochemical, ADP Hunter fluorescence, primary and confirmatory, confirmation (AID 624330); type: functional
T2 sequence (Q9H0H5 whole entry): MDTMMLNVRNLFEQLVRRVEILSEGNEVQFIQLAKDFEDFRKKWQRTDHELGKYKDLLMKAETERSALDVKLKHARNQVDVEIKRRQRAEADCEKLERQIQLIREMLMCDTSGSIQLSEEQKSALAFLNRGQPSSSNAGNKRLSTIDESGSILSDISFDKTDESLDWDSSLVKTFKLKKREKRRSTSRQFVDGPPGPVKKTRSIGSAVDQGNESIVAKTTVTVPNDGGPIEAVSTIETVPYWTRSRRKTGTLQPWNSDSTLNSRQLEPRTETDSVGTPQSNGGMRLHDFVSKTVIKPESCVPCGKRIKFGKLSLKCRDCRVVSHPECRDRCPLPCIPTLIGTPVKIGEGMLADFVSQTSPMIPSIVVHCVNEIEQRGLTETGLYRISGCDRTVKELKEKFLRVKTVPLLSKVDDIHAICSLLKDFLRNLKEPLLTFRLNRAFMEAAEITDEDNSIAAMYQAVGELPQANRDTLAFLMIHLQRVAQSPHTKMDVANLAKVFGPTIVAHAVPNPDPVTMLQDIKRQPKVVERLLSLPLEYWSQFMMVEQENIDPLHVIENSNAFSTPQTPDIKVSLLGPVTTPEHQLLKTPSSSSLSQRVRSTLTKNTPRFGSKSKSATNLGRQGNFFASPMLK

[3] = NIH3T3 cell viability loss – ATP luminescence, mouse fibroblasts, counter-screen, dose response (AID 2010); type: functional, cell-based;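 further: cells exposed to compound for about 90 hours before reading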
[4] = Trypanosoma cruzi growth suppression in host cells – NIH3T3 host cells, beta-gal luminescence, confirmation (AID 2044); type: functional, cell-based;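 further: intracellular parasites grown in NIH/3T3 mouse fibroblasts as host cells; luminescent beta-galactosidase reporter signal from transgenic T. cruzi replicating inside host cells; inhibitors lower the luminescence signal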
[5] = NIH-3T3 fibroblast cytotoxicity, dose response, cytotoxicity control, cell-based, fluorescence, Alamar Blue, secondary assay (AID 2327); type: functional;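 further: NIH-3T3 mouse fibroblasts cultured with fluconazole at 8 µg/mL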
[6] = fluconazole-exposed Candida albicans growth modulators – fluorescence, retest, confirmation (AID 2467); type: functional, cell-based
[7] = viability of HCT116 lacking mutant beta-catenin – cell-based, human colon tumor, dose response (AID 1045); type: functional;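 further: HCT116 colon tumor cells with beta catenin knocked out; cells exposed to compound for 60 hours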
[8] = viability of PTEN-deleted HCT116 cells – cell-based, HCT116 PTEN knockout, dose response (AID 1047); type: functional;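 further: HCT116 colon tumor cells with PTEN knocked out; cells exposed to compound for 60 hours before readout; potency for loss of cell viability measured by luminescence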
[9] = target: T3, RNA-binding protein pos-1 (Caenorhabditis elegans, UniProt G5EF15); experiment: disruptors of C. elegans POS-1 RNA interaction – biochemical, fluorescence polarization, dose response (AID 1964);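 further: purified POS-1 fused to maltose binding protein made in E. coli; potency of compounds blocking POS-1 binding to fluorescent RNA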
T3 sequence (G5EF15 whole entry): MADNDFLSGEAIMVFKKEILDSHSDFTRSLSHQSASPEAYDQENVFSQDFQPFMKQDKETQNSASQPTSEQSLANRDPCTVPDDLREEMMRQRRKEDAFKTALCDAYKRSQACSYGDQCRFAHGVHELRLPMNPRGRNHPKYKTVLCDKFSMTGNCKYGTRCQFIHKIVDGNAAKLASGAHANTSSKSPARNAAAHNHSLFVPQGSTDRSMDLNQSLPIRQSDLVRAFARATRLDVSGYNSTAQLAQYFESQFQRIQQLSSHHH

[10] = target: T4, Zinc finger protein mex-5 (Caenorhabditis elegans, UniProt Q9XUB2); experiment: potency of MEX-5 RNA-binding blockers – biochemical, C. elegans, fluorescence polarization, dose response (AID 1960)
T4 sequence (Q9XUB2 whole entry): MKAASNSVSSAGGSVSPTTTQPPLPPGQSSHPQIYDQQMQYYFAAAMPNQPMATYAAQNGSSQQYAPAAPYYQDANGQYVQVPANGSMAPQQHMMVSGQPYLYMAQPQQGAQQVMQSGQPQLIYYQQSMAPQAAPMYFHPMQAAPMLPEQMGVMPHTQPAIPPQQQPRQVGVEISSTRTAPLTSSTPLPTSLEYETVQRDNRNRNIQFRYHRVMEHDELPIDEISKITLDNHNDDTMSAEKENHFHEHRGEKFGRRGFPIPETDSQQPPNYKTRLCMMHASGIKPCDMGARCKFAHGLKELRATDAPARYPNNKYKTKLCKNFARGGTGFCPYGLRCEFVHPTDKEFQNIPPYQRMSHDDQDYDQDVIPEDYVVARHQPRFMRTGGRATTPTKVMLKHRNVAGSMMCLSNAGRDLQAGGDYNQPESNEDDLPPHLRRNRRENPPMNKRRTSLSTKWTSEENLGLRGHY

[11] = target: Cytochrome P450 2D6 (Homo sapiens, UniProt P10635);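 further: CYP2D6 member of a cytochrome P450 panel assay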
[12] = target: Cytochrome P450 3A4 (Homo sapiens, UniProt P08684);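 further: CYP3A4 tested as one member of a cytochrome P450 panel screen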
[13] = test system: INS1; experiment: INS-1E survival protection against cytokine death – cell-based, luminescence, retest, dose response (AID 449756); type: functional; conditions: Rattus norvegicus;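 further: cell death triggered by IL-1 beta plus TNF-alpha plus IFN-gamma mixture; protective hits raise ATP signal compared with cytokine alone wells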
[14] = HIV-1 AD8 envelope cell-cell fusion blockers – cherry-pick, dose response (AID 652062); type: functional, cell-based;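 further: luciferase signal from cell-cell fusion driven by HIV-1 clade B AD8 Env; potency is for inhibitors of fusion seen as a drop in luminescence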
[15] = Luminescence Cell-Based Dose Response HTS to Identify Activators of Luciferase Translation or Activity in H4 […] Cells. [Related pubchem assays: 1829 (Project Summary), 1814 (Primary HTS)]; type: functional
[16] = test system: H4; experiment: Luminescence Cell-Based Dose Response HTS to Identify Activators of 5'UTR Stem-Loop Driven Prion Protein mRNA Translation in H4 Neuroglioblastoma Cells. [Related pubchem assays: 1829 (Project Summary), 1814 (Primary HTS)]; type: functional; conditions: Homo sapiens
[17] = cells; type: functional
[18] = Luminescence Cell-Based Dose Retest to Confirm Inhibitors of Cancer Stem Cells. [Related pubchem assays (depositor defined):AID2717, AID2721]; type: functional; conditions: Homo sapiens

Chain of Cytochrome P450 3A4 (P08684 whole entry): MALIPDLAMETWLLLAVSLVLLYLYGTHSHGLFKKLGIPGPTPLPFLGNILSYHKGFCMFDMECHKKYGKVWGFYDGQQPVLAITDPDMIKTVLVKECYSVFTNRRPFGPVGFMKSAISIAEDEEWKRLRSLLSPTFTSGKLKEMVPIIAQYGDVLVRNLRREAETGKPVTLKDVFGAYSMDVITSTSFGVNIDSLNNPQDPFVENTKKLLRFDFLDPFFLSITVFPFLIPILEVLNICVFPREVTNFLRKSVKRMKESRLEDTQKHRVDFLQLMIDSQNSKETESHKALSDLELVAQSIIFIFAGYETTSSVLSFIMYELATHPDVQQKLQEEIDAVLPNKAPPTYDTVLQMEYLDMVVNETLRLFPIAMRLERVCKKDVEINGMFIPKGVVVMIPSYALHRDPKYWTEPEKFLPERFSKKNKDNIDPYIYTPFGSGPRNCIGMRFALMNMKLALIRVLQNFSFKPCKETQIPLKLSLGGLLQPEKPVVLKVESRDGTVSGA
Chain of Cytochrome P450 2D6 (P10635 whole entry): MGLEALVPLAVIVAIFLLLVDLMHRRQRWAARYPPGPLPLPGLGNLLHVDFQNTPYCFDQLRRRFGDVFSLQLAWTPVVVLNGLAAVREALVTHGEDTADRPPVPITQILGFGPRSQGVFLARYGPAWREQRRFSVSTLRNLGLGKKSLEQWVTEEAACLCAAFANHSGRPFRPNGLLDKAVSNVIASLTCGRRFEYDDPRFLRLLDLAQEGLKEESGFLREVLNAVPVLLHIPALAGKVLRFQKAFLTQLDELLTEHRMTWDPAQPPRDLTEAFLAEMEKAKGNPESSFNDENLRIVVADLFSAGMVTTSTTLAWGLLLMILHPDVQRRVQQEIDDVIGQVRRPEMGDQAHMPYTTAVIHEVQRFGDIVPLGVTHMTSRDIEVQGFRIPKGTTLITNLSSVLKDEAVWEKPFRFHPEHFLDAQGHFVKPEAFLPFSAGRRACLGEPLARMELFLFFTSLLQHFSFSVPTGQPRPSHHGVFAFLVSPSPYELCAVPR

With `COc1c(C(=O)Nc2nccs2)ccc2ccccc12` the IC50 [1] was 17.1 µM (active).
In the case of `CCN(CC)c1ccc(S(=O)(=O)N2CCOCC2)cc1NC(=O)COC(=O)/C=C/c1ccc(O)c(OC)c1`, the IC50 [2] is reported as 108 µM (active).
For `O=[N+]([O-])c1ccc(COc2ccc(CN3CCCC3)cc2)cc1`, the IC50 [1] was 3.75 µM (active).
With `O=C(Nc1cc2c3c(c1)C1CCCC1CN3CC1CCCC21)c1ccccc1` (stereo not drawn) the EC50 [3] was > 60 µM (not active), the EC50 [4] was 0.78 µM (active) and the EC50 [5] was > 160 µM (inactive).
With `Clc1ccc(-c2cn3cc(Br)ccc3n2)cc1Cl` the IC50 [1] was > 100 µM (inactive).
With `O=S(=O)(Nc1nc2ccccc2s1)c1ccc(Br)s1` the EC50 [5] was > 150 µM (inactive) and the EC50 [6] was 1.94 µM (active).
For `Cn1cc(C(=O)NCCN2CCN(c3cccc(Cl)c3)CC2)c2c3ccccc3n(C)c2c1=O`, the EC50 [7] was 63 µM (active) and the EC50 [8] was 46.8 µM (active).
In the case of `Cc1noc(C)c1S(=O)(=O)N1CCCC(C(=O)NCCc2ccc(Cl)cc2)C1` (stereo not drawn), the IC50 [1] is reported as > 100 µM (inactive).
For `Cc1ccc2[nH]c(C)c(/C=C3/C(=N)N4N=C(CC(=O)N5CCOCC5)SC4=NC3=O)c2c1`, the IC50 [1] was > 100 µM (inactive), the EC50 [9] was 38.3 µM (active) and the EC50 [10] was > 300 µM (inconclusive).
For `Cc1ccc(OCc2ccc(C(=O)Nc3nccs3)o2)cc1C`, the IC50 [1] was > 100 µM (inactive) and the AC50 [11] was 15.8 µM (inconclusive).
In the case of `Cn1cccc1C(=O)N1CCC2(CCCN(C(=O)Nc3cccc(F)c3)C2)CC1`, the AC50 [12] is reported as 10 µM (inconclusive).
For `Nc1ccc(C(=O)N/N=C/c2ccc(N3CCOCC3)s2)cc1`, the IC50 [2] was 16.5 µM (active).
With `CC1=NNC(=O)C1Br` (stereo not drawn) the IC50 [2] was 55.9 µM (active).
For `CCCSc1nc(O)c2cnn(-c3ccc(C)cc3)c2n1`, the EC50 [7] was 20.7 µM (active) and the EC50 [8] was 22.2 µM (active).
With `O=C(c1cc(COc2cccc(C(F)(F)F)c2)on1)N1CCC(c2ccncc2)CC1` the AC50 [13] was 5.33 µM (active), the AC50 [14] was 6.22 µM (active) and the EC50 [5] was > 150 µM (inactive). The EC50 [6] was > 38 µM (not active).
With `COc1cc(/C=N/NC(=O)C(=O)Nc2ccccn2)ccc1O` the IC50 [2] was 22.6 µM (active).
In the case of `c1ccc(CSc2nnc(-c3c[nH]c4ccccc34)o2)cc1`, the EC50 [15] is reported as 28.7 µM (active) and the EC50 [16] is reported as 70.2 µM (active).
For `Cc1ccc(-n2c(=S)[nH]c3sc4c(c3c2=O)CCC4)cc1`, the IC50 [2] was 85.6 µM (active).
For `O=C(COc1ccccc1F)N/N=C1\CCCc2ccccc21`, the EC50 [15] was 24.8 µM (active) and the EC50 [16] was 53.3 µM (inconclusive).
In the case of `COc1ccccc1N1CCN(CCCOc2ccc(F)cc2)CC1`, the IC50 [2] is reported as 122 µM (active).
In the case of `COc1cc(SC)ccc1C(=O)Nc1nccs1`, the IC50 [1] is reported as 53.6 µM (inactive).
For `CN(C)C(CNC(=O)CCc1nc2cc(Cl)ccc2n(Cc2ccccc2)c1=O)c1ccccc1` (stereo not drawn), the IC50 [1] was 58.1 µM (inactive).
In the case of `Cc1ccc(C)c(NS(=O)(=O)c2ccc3c(c2)Cc2cc(S(=O)(=O)Nc4cc(C)ccc4C)ccc2-3)c1`, the EC50 [7] is reported as 11.2 µM (active) and the EC50 [8] is reported as 9.63 µM (active).
For `CCc1nc2c(OCc3ccc(C(F)(F)F)cc3)cccn2c1N(C)C(=O)c1ccncc1`, the IC50 [1] was 4.62 µM (active).
With `CCOc1cc(N2CCOCC2)c(OCC)cc1NC(=O)Cc1ccccc1OC` the EC50 [7] was 21.2 µM (active) and the EC50 [8] was 23.9 µM (active).
In the case of `COc1ccc(NC2CCCN(C(=O)CCC3=NNC(=O)CC3)C2)cc1` (stereo not drawn), the IC50 [2] is reported as 126 µM (active).
With `CN1/C(=C/C=N/NC(=O)c2ccc([N+](=O)[O-])cc2)C(C)(C)c2ccccc21` the EC50 [7] was 23.2 µM (active) and the EC50 [8] was 24.3 µM (active).
In the case of `O=C(NCc1cccnc1)NC1(C(F)(F)F)Oc2ccccc2O1`, the EC50 [7] is reported as 23.3 µM (active) and the EC50 [8] is reported as 25.1 µM (active).
In the case of `O=C1CCC(C(=O)OCC(=O)N2N=C3/C(=C\c4ccccc4)CCCC3C2c2ccccc2)N1` (stereo not drawn), the IC50 [1] is reported as > 100 µM (inactive).
For `Cc1[nH]c2ccccc2c1/C=C/c1cc[n+](C)cc1`, the EC50 [5] was 120 µM (inconclusive), the AC50 [11] was 17.8 µM (inconclusive) and the EC50 [6] was > 38 µM (not active).
For `COc1ccc(-c2cc3ccccc3n2CC(O)CN2CCCCC2)cc1` (stereo not drawn), the IC50 [2] was 110 µM (active).
In the case of `CCCCCOC(=O)CSc1nnc(-c2ccccc2)c(O)n1`, the AC50 [12] is reported as 22.4 µM (inconclusive).
For `CCn1ncc(C2=NOC(C(=O)Nc3ccc(C)cc3)C2)c1C` (stereo not drawn), the AC50 [14] was 32.8 µM (active).
For `Nc1ccccc1Nc1ccccc1`, the IC50 [2] was 36.1 µM (active) and the IC50 [17] was 1.28 µM (active).
In the case of `COc1ccc(-c2csc(NC(=S)NC(=O)/C=C/c3ccco3)n2)cc1OC`, the AC50 [18] is reported as 0.853 µM (active), the EC50 [7] is reported as 3.11 µM (active) and the EC50 [8] is reported as 1.62 µM (active).
For `O=C(Nc1csc(Cl)c1)c1ccccc1`, the IC50 [1] was > 100 µM (inactive).
For `CCn1c(CC(=O)Nc2ccc(C)c(Cl)c2)nnc1SCC(=O)Nc1nc(C)cs1`, the EC50 [7] was 27.2 µM (active) and the EC50 [8] was 25.4 µM (active).
For `CC(C)c1ccc(C(=O)Nc2ccc(CN3CCOCC3)cc2)cc1`, the IC50 [1] was 3.18 µM (active).
With `CC(C)C(CCNCc1ccccn1)c1ccc(Cl)cc1` (stereo not drawn) the IC50 [1] was > 100 µM (inactive).
With `COC(=O)/C(=C\c1ccc([N+](=O)[O-])o1)NC(=O)c1ccccc1` the EC50 [5] was > 160 µM (inactive) and the EC50 [6] was 0.53 µM (active).
For `CN(C)Cc1ccccc1-c1cncnc1NCc1cccs1`, the AC50 [12] was 1.26 µM (inconclusive).
In the case of `CCCCn1c(S)nc2c(=O)n(C)c(=O)n(C)c21`, the IC50 [2] is reported as 20.9 µM (active).
With `COc1ccc(CCNC(=O)c2c(O)c3ccccc3n(C)c2=O)cc1` the EC50 [5] was 72.2 µM (active) and the EC50 [6] was > 38 µM (not active).
